{
  "source": "patent US10882860B2",
  "about": "“Treatment of osteoarthritis” (Samumed, LLC, priority 2015, dated 2021)",
  "key": {"nitric oxide release": {"tested_on": "nitric oxide release", "test": "Immunosuppression in chondrocytes: nitric oxide (Greiss reagent)", "assay_type": "cell-based, human", "conditions": "cells stimulated with TNF-α and oncostatin M or IL-1β; 72 hours; FIG. 20B", "protocol": "Human MSCs were plated in 10 cm dishes in chondrogenic induction medium (Lonza; DMEM, dexamethasone, ascorbate, insulin-transferrin-selenium [ITS supplement], gentamycin-amphotericin [GA-1000], sodium pyruvate, proline and L-glutamine) and treated with TGF-β3 (20 μg/mL) to induce chondrogenic differentiation. Cells from 4 dishes were pooled and re-plated in 24-well plates in Chondrogenic Induction Medium and treated with various concentrations of the compound of Formula (I). 4 hours later, cells were stimulated by adding TNF-α (20 μg/mL)+Oncostatin M ([…]) or IL-1β (10 μg/mL) and incubated at 37° C., 5% CO2 for 72 hours. Chondrocytes were digested with papain (Sigma). GAG content was measured using the dimethylmethylene blue (DMMB) kit (Chondrex). Briefly, the digested chondrocytes were mixed with DMMB in formate buffer and absorbance at 535 nm was measured using Cytation 3 (Biotek). Nitric oxide was measured using Greiss reagent (Promega) according to manufacturer's protocol."}, "[1]": {"tested_on": "moderate-to-severe symptomatic knee OA subjects", "test": "Phase 1 clinical study: safety and adverse events", "assay_type": "in vivo, human", "conditions": "for AE(s) Reported - All / AE(s) Reported - Target knee, Arthralgia / AE(s) Reported - Target knee, Injection site bruising / AE(s) Reported - Target knee, Injection site pain / AE(s) Reported - Target knee, Joint injury / AE(s) Reported - Target knee, Joint stiffiiess / AE(s) Reported - Target knee, Joint swelling / AE(s) Reported - Target knee, Meniscus injury / DLT(s) Reported / SAE(s) Reported: single IA injection", "protocol": "A Phase 1 study was conducted to evaluate the safety and tolerability of the compound of Formula (I) (Form 1) administered by intra-articular injection into a target knee joint of moderate-to-severe symptomatic OA subjects.\nThe study was a first-in-human, multicenter, 24-week, placebo-controlled, single-dose, dose-escalation safety study of a Wnt pathway inhibitor in subjects suffering from moderate to severe symptomatic knee OA. The sample size was 20 subjects (randomized 4:1, 16 active: 4 placebo) per dosing cohort. Inclusion criteria included: Age, 50-75 years; Western Ontario and McMaster Universities Arthritis Index (WOMAC) Total score, 36-72 (out of 96); Kellgren-Lawrence grade, 2 or 3; and a willingness to omit pain medication for 24 hours prior to pain assessments. Exclusion criteria included: BMI>40; and treatment with IA steroids within 2 months or HA derivatives within 6 months prior to injection. A full list of the inclusion and exclusion criteria for this study can be found on clinicaltrials.gov (NCT02095548).\nThe dosing sequence included suspension compositions of either 0.03 mg, 0.07 mg, or 0.23 mg of the compound of Formula (I) (Form 1) per 2 mL injection in a vehicle containing 0.5% carboxymethylcellulose sodium and 0.05% polysorbate 80 in pH 7.4 phosphate buffered saline. The placebo contained only the diluent of 0.5% carboxymethylcellulose sodium and 0.05% polysorbate 80 in pH 7.4 phosphate buffered saline. The subjects were given a single, intra-articular injection in the target knee on Treatment Day 1 and participated in a follow-up period of 24 weeks.\nSafety, pharmacokinetics (PK), biomarker, and efficacy data were collected at baseline and during the 24-week follow-up period. Safety data included adverse events (AEs), concomitant medications, clinical laboratory sampling, medical history, vital signs, ECGs, hip bone density (DXA) analysis, qCT of the target knee, and evaluation of bone edema via MM. For PK data, samples were collected 0, 4, and 24 hours post dose, and at Weeks 4 and 12. Biomarker data included data for procollagen type 1 N-propeptide (P1NP), beta C-terminal telopeptide of type 1 collagen (βCTX), and cartilage oligomeric matrix protein (COMP). Efficacy data included measurements of WOMAC Total score, WOMAC Function and Pain subscores, pain VAS, Physician Global Assessment of Disease Activity, MM, and radiographs. Efficacy assessments were used to determine the percentage of OMERACT-OARSI “strict” responders. Exploratory analyses of efficacy outcomes were conducted using a baseline-adjusted repeated measures analysis of covariance (ANCOVA) in the Intention-to-Treat (ITT) population. The sponsor was unblinded after Week 12 for each cohort; site investigators remained blinded. All AEs reported in this study were […]. Investigator opinion regarding whether AEs were related to the compound of Formula (I) was also collected for informational purposes."}},
  "note": "Marks after values point to notes of the source that are not given here.",
  "data": [
    {"smiles": "CC(C)CC(=O)Nc1cncc(-c2ccc3[nH]nc(-c4nc5c(-c6cccc(F)c6)cncc5[nH]4)c3c2)c1", "note": "[compound of Formula (I)]", "values": [
      {"measurement": "release of nitric oxide", "setting": "nitric oxide release", "result": "reduced"},
      {"measurement": "Subjects Who Reported AE(s) [N(%)]", "setting": "[1]; 0.03 mg cohort", "result": "9 (53%) N(%)"},
      {"measurement": "Subjects Who Reported No AE(s) [N(%)]", "setting": "[1]; 0.03 mg cohort", "result": "8 (47%) N(%)"},
      {"measurement": "AE(s) Reported - All", "setting": "[1]; 0.03 mg cohort", "result": 15},
      {"measurement": "AE(s) Reported - Target knee, Arthralgia", "setting": "[1]; 0.03 mg cohort", "result": 1},
      {"measurement": "AE(s) Reported - Target knee, Injection site bruising", "setting": "[1]; 0.03 mg cohort", "result": 0},
      {"measurement": "AE(s) Reported - Target knee, Injection site pain", "setting": "[1]; 0.03 mg cohort", "result": 0},
      {"measurement": "AE(s) Reported - Target knee, Joint injury", "setting": "[1]; 0.03 mg cohort", "result": 1},
      {"measurement": "AE(s) Reported - Target knee, Joint stiffiiess", "setting": "[1]; 0.03 mg cohort", "result": 0},
      {"measurement": "AE(s) Reported - Target knee, Joint swelling", "setting": "[1]; 0.03 mg cohort", "result": 0},
      {"measurement": "AE(s) Reported - Target knee, Meniscus injury", "setting": "[1]; 0.03 mg cohort", "result": 0},
      {"measurement": "DLT(s) Reported", "setting": "[1]; 0.03 mg cohort", "result": 0},
      {"measurement": "SAE(s) Reported", "setting": "[1]; 0.03 mg cohort", "result": 0},
      {"measurement": "Subjects Who Reported AE(s) [N(%)]", "setting": "[1]; 0.07 mg cohort", "result": "6 (37%) N(%)"},
      {"measurement": "Subjects Who Reported No AE(s) [N(%)]", "setting": "[1]; 0.07 mg cohort", "result": "10 (63%) N(%)"},
      {"measurement": "AE(s) Reported - All", "setting": "[1]; 0.07 mg cohort", "result": 11},
      {"measurement": "AE(s) Reported - Target knee, Arthralgia", "setting": "[1]; 0.07 mg cohort", "result": 1},
      {"measurement": "AE(s) Reported - Target knee, Injection site bruising", "setting": "[1]; 0.07 mg cohort", "result": 0},
      {"measurement": "AE(s) Reported - Target knee, Injection site pain", "setting": "[1]; 0.07 mg cohort", "result": 2},
      {"measurement": "AE(s) Reported - Target knee, Joint injury", "setting": "[1]; 0.07 mg cohort", "result": 0},
      {"measurement": "AE(s) Reported - Target knee, Joint stiffiiess", "setting": "[1]; 0.07 mg cohort", "result": 0},
      {"measurement": "AE(s) Reported - Target knee, Joint swelling", "setting": "[1]; 0.07 mg cohort", "result": 1},
      {"measurement": "AE(s) Reported - Target knee, Meniscus injury", "setting": "[1]; 0.07 mg cohort", "result": 0},
      {"measurement": "DLT(s) Reported", "setting": "[1]; 0.07 mg cohort, increased target knee pain and paroxysmal tachycardia", "result": "2*"},
      {"measurement": "SAE(s) Reported", "setting": "[1]; 0.07 mg cohort, paroxysmal tachycardia", "result": "1*"},
      {"measurement": "Subjects Who Reported AE(s) [N(%)]", "setting": "[1]; 0.23 mg cohort", "result": "7 (44%) N(%)"},
      {"measurement": "Subjects Who Reported No AE(s) [N(%)]", "setting": "[1]; 0.23 mg cohort", "result": "9 (56%) N(%)"},
      {"measurement": "AE(s) Reported - All", "setting": "[1]; 0.23 mg cohort", "result": 25},
      {"measurement": "AE(s) Reported - Target knee, Arthralgia", "setting": "[1]; 0.23 mg cohort", "result": 1},
      {"measurement": "AE(s) Reported - Target knee, Injection site bruising", "setting": "[1]; 0.23 mg cohort", "result": 1},
      {"measurement": "AE(s) Reported - Target knee, Injection site pain", "setting": "[1]; 0.23 mg cohort", "result": 1},
      {"measurement": "AE(s) Reported - Target knee, Joint injury", "setting": "[1]; 0.23 mg cohort", "result": 0},
      {"measurement": "AE(s) Reported - Target knee, Joint stiffiiess", "setting": "[1]; 0.23 mg cohort", "result": 1},
      {"measurement": "AE(s) Reported - Target knee, Joint swelling", "setting": "[1]; 0.23 mg cohort", "result": 1},
      {"measurement": "AE(s) Reported - Target knee, Meniscus injury", "setting": "[1]; 0.23 mg cohort", "result": 1},
      {"measurement": "DLT(s) Reported", "setting": "[1]; 0.23 mg cohort", "result": 0},
      {"measurement": "SAE(s) Reported", "setting": "[1]; 0.23 mg cohort", "result": 0},
      {"measurement": "AEs considered related to study medication by the reporting investigator", "setting": "[1]; 16 of 77 AEs", "result": 22, "unit": "%"},
      {"measurement": "exposed subjects who reported no AEs", "setting": "[1]; 27 of 49 exposed subjects", "result": 55, "unit": "%"},
      {"measurement": "overall safety and tolerability", "setting": "[1]; single IA injection of suspension formulated from Form 1, interim data", "result": "safe, well-tolerated"}
    ]}
  ]
}
